Earlier results on one molecule are cited in patent EP4302755B1, “PALBOCICLIB FORMULATION CONTAINING AN AMINO ACID” (Lotus Pharmaceutical Co., Ltd., priority 2022, dated 2024).

For series [1] the following is noted: at low pH (2.1-4.5).

Like-named read-outs stand apart in the source and are kept apart here.

With `CC(=O)c1c(C)c2cnc(Nc3ccc(N4CCNCC4)cn3)nc2n(C2CCCC2)c1=O` [Palbociclib], the pKa runs as follows: (the pyridine nitrogen) approximately 4.1; (the secondary piperazine nitrogen) “approximately 7.3”. Also, the solubility entry in series [1] is given as “water soluble”.
